The values below come from publication PMC9797722 (Frontiers in Veterinary Science, 2022).

For data set [1] the following is noted: in vivo.
The conditions of data set [2]: humans, cited from earlier work.
For data set [3] the following is noted: Canine, cited from earlier work.
Data set [4] in a line: Plasma pharmacokinetics of esomeprazole and esomeprazole sulfone in goats after IV and SC administration (HPLC, non-compartmental analysis). The following applies: for C0: C0, goats; for MRT inf: MRTinf; for k el: λz; for Vd/F: Vz/F.
Another data set has as its system gastric pH. The following applies: horses, cited from earlier work.
On the set-up of data set [5]: method as in PMID 34631865. The following applies: goats, intravenously or subcutaneously administered, all animals; cited from earlier work.
For data set [6], the system named is pH of the third compartment. Details: method as in PMID 20384953. The following applies: alpacas, administered IV or SC; cited from earlier work.
Setting [7] is: both, pygmy and pygmy-cross, plasma, iv, 1 mg/kg.
The mark [8] stands for this setting: both, pygmy and pygmy-cross, plasma, iv, 1 mg/kg, goats, 1 mg/kg IV single dose, geomean, n = 5.
The mark [9] stands for this setting: both, pygmy and pygmy-cross, plasma, iv, 1 mg/kg, goats, 1 mg/kg IV single dose, median, n = 5.
Setting [10] is: both, pygmy and pygmy-cross, plasma, sc, 2 mg/kg.
Where [11] appears, read: both, pygmy and pygmy-cross, plasma, sc, 2 mg/kg, goats, 2 mg/kg SC (SQ) single dose, geomean, n = 5.
[12] abbreviates: both, pygmy and pygmy-cross, plasma, sc, 2 mg/kg, goats, 2 mg/kg SC (SQ) single dose, median, n = 5.
The mark [13] stands for this setting: goats, 1 mg/kg IV single dose, plasma, geomean, n = 5.
The mark [14] stands for this setting: goats, 1 mg/kg IV single dose, plasma, median, n = 5.
The mark [15] stands for this setting: goats, 2 mg/kg SC (SQ) single dose, plasma, geomean, n = 5.
The mark [16] stands for this setting: goats, 2 mg/kg SC (SQ) single dose, plasma, median, n = 5.

Structures are written as SMILES. Where two headings read alike, the source gives them in different places.

For the molecule `COc1ccc2[nH]c(S(=O)(=O)Cc3ncc(C)c(OC)c3C)nc2c1` [Esomeprazole Sulfone, esomeprazole sulfone], in data set [1], the “time detectable in plasma” value was below 4 h. Further, in data set [1] (sc), the “detection of sulfone metabolite in plasma” value is listed as “no detectable sulfone metabolite”. Moreover, in data set [2], the “activity of the metabolite within the body” value was “not active”.

On to `COc1ccc2nc([S@@+]([O-])Cc3ncc(C)c(OC)c3C)[nH]c2c1` [Esomeprazole, esomeprazole], for which the AUCinf in data set [3] (1 mg/kg IV) was 3820 ng·h/mL; in data set [3] (1 mg/kg SQ) it was 4070 ng·h/mL; in data set [4] (setting [13]), 442 ng·h/mL; in data set [4] (setting [14]), 397 ng·h/mL; in data set [4] (setting [15]), 1030 ng·h/mL; in data set [4] (setting [16]), 979 ng·h/mL. In addition, the AUClast in data set [3] (1 mg/kg IV) was 3820 ng·h/mL; in data set [3] (1 mg/kg SQ), 4070 ng·h/mL; in data set [4] (setting [13]), 439 ng·h/mL; in data set [4] (setting [14]), 394 ng·h/mL; in data set [4] (setting [15]), 1020 ng·h/mL; in data set [4] (setting [16]) it was 959 ng·h/mL. Moreover, the Cl in data set [3] (1 mg/kg IV) is 5 mL/min/kg. For the same molecule, the figures for the “T1/2 (λz)” value in data set [3] (1 mg/kg IV) and in data set [3] (1 mg/kg SQ) were 43.8 min and 54 min, respectively. Also, the Vss (as a rule, the apparent volume that relates the amount in the body to the concentration in plasma or blood) in data set [3] (1 mg/kg IV) was 0.27 L/kg. The C0/Cmax in data set [3] (1 mg/kg SQ) was 2620 ng/mL. The “F (bioavailability)” value is 106% in data set [3] (1 mg/kg SQ) and 116% in data set [4] (Goat, 2 mg/kg SC vs 1 mg/kg IV, AUCSC/AUCIV x DoseIV/DoseSC). Moreover, the AUC(0-inf) (usually total exposure, with the tail of the curve extrapolated) is 440 ng·h/mL in data set [4] (setting [7]) and 1030 ng·h/mL in data set [4] (setting [10]). The values for the exposure AUC(0-t) in data set [4] (setting [7]) and in data set [4] (setting [10]) were 440 ng·h/mL and 1020 ng·h/mL, respectively. Also, the C0 was 2320 ng/mL in data set [4] (both, pygmy and pygmy-cross, plasma, iv, 1 mg/kg, 1 mg/kg IV single dose, geomean, n = 5); 2880 ng/mL in data set [4] (both, pygmy and pygmy-cross, plasma, iv, 1 mg/kg, 1 mg/kg IV single dose, median, n = 5). The Cmax (commonly the peak of the concentration-time curve) is 2320 ng/mL in data set [4] (both, pygmy and pygmy-cross, plasma, iv, 1 mg/kg, C0/Cmax, Goat, 1 mg/kg IV (Table 3 comparison)); 1040 ng/mL in data set [4] (both, pygmy and pygmy-cross, plasma, sc, 2 mg/kg, C0/Cmax, Goat, 2 mg/kg SQ (Table 3 comparison)); 1040 ng/mL in data set [4] (both, pygmy and pygmy-cross, plasma, sc, 2 mg/kg, Cmax, goats, 2 mg/kg SC (SQ) single dose, geomean, n = 5); 1060 ng/mL in data set [4] (both, pygmy and pygmy-cross, plasma, sc, 2 mg/kg, Cmax, goats, 2 mg/kg SC (SQ) single dose, median, n = 5). Also, the clearance in data set [4] (both, pygmy and pygmy-cross, plasma, iv, 1 mg/kg, Cl (plasma clearance), goats, 1 mg/kg IV single dose, geomean, n = 5) is 24.9 mL/min/kg; in data set [4] (both, pygmy and pygmy-cross, plasma, iv, 1 mg/kg, Cl (plasma clearance), goats, 1 mg/kg IV single dose, median, n = 5), 21.9 mL/min/kg; in data set [4] (both, pygmy and pygmy-cross, plasma, iv, 1 mg/kg, Cl, Goat, 1 mg/kg IV (Table 3 comparison)) it was 25 mL/min/kg; in data set [4] (both, pygmy and pygmy-cross, plasma, iv, 1 mg/kg, clearance, goats, 1 mg/kg IV, not normalised to body weight), 1050 mL/min. In addition, the mean residence time MRT inf (usually the average time that molecules of a dose stay in the body) in data set [4] (setting [8]) is 9.19 min; in data set [4] (setting [9]) it was 8.41 min; in data set [4] (setting [11]) it was 51.7 min; in data set [4] (setting [12]) it was 52.1 min. Besides, the Vd was 0.23 L/kg in data set [4] (both, pygmy and pygmy-cross, plasma, iv, 1 mg/kg, Vss, Goat, 1 mg/kg IV (Table 3 comparison)); 0.23 L/kg in data set [4] (both, pygmy and pygmy-cross, plasma, iv, 1 mg/kg, Vz (volume of distribution), goats, 1 mg/kg IV single dose, geomean, n = 5); 0.19 L/kg in data set [4] (both, pygmy and pygmy-cross, plasma, iv, 1 mg/kg, Vz (volume of distribution), goats, 1 mg/kg IV single dose, median, n = 5). The k el was 0.00183 s⁻¹ in data set [4] (setting [8]), 0.00183 s⁻¹ in data set [4] (setting [9]), 0.0004 s⁻¹ in data set [4] (setting [11]) and 0.000433 s⁻¹ in data set [4] (setting [12]). For the same molecule, in data set [4] (both, pygmy and pygmy-cross, plasma, sc, 2 mg/kg, F (bioavailability), Goat, 2 mg/kg SC vs 1 mg/kg IV, AUCSC/AUCIV x DoseIV/DoseSC), the bioavailability (in general, dose-corrected exposure relative to a reference, in per cent) is above 100%. The half-life (usually how long it takes for the measured level to halve) in data set [4] (both, pygmy and pygmy-cross, plasma, sc, 2 mg/kg, T1/2 (λz) elimination half-life, goats, 2 mg/kg SC (SQ) single dose, geomean, n = 5) is 29 min; in data set [4] (both, pygmy and pygmy-cross, plasma, sc, 2 mg/kg, T1/2 (λz) elimination half-life, goats, 2 mg/kg SC (SQ) single dose, median, n = 5) it was 26.8 min; in data set [4] (both, pygmy and pygmy-cross, plasma, sc, 2 mg/kg, T1/2 (λz), Goat, 2 mg/kg SQ), 29.4 min. Besides, the Tmax (usually the time from dosing to the highest level) was 22 min in data set [4] (both, pygmy and pygmy-cross, plasma, sc, 2 mg/kg, Tmax, goats, 2 mg/kg SC (SQ) single dose, geomean, n = 5); 20 min in data set [4] (both, pygmy and pygmy-cross, plasma, sc, 2 mg/kg, Tmax, goats, 2 mg/kg SC (SQ) single dose, median, n = 5); 21.69 min in data set [4] (goats, 2 mg/kg SC (SQ) single dose, plasma, geomean, n = 5, 2 mg/kg). The Vd/F – broadly, the volume of distribution divided by bioavailability – in data set [4] (setting [11]) was 0.9 L/kg; in data set [4] (setting [12]), 0.78 L/kg. Besides, the AUMCinf is 244 min²·µg/mL in data set [4] (setting [13]), 222 min²·µg/mL in data set [4] (setting [14]), 3200 min²·µg/mL in data set [4] (setting [15]) and 3780 min²·µg/mL in data set [4] (setting [16]). For the same molecule, in data set [4] (goats, IV (1 mg/kg) and SC (2 mg/kg), any animal), the “plasma concentrations detected over time” value is “not detected after 4 h”. Also, the “tolerability of maintenance therapy” value in data set [2] (daily for up to 6 months) is reported as “generally well-tolerated”. Also, the “gastric pH raised to” value with gastric pH (administered intravenously) is on record as at least 4.

Take `COc1ccc2[n-]c([S+]([O-])Cc3ncc(C)c(OC)c3C)nc2c1.COc1ccc2[n-]c([S+]([O-])Cc3ncc(C)c(OC)c3C)nc2c1.[Mg+2]` (stereo not shown) [esomeprazole magnesium]: in the data set on gastric pH (orally 60 or 80 mg, for up to 6 h post administration), the “gastric pH maintained” value was at least 5. In addition, the adverse reactions entry with gastric pH (orally 60 or 80 mg) was “No adverse reactions were found”.

`COc1ccnc(C[S+]([O-])c2nc3ccc(OC(F)F)cc3[nH]2)c1OC` (stereo not shown) [pantoprazole]: the “plasma concentration detected over time” value in data set [5] is given as “undetectable after 4 h”. Further, the “effect on pH of the third compartment” value in data set [6] was “significantly increased the pH of the third compartment”.
